Among the data in patent US9771341B2, “Piperazine carbamates and methods of making and using same” (Abide Therapeutics, Inc., priority 2015, dated 2017) are IC50 and inhibition values, retold here.

Some results are limits rather than exact numbers.

In general, IC50 refers to the concentration at which inhibition is half-maximal. A lower IC50 goes with inhibition by little substance. The inhibition is the share of the control response that was lost under treatment.

Assay [1] has as its target T1, FAAH (Mus musculus, UniProt O08914).
T1 construct: Proteomes (mouse brain membrane fraction or cell lysates); from tissue; host or cells: mouse brain membrane fraction (or unspecified cell lysates)
T1 sequence (O08914 1-579): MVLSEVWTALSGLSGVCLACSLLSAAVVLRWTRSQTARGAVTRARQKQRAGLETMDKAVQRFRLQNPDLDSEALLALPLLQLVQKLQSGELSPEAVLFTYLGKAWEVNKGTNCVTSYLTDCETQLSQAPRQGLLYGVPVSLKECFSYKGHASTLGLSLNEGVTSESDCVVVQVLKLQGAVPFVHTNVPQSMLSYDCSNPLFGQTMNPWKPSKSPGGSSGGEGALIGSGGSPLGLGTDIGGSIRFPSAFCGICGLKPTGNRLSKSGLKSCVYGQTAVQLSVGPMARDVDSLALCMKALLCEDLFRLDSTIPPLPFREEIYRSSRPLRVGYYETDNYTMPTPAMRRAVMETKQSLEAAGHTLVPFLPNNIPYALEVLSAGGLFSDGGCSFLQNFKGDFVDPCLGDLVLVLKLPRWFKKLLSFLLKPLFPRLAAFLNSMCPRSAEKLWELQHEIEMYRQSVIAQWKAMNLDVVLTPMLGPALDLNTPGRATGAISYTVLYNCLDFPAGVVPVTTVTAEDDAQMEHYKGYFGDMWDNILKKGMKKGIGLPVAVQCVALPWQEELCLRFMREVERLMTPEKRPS
Description: In vitro competitive activity-based protein profiling (mouse), FAAH. The note with it: for IC50: mouse brain membrane fraction or cell lysates, 30 min preincubation at 37° C, FP-Rh probe; for inhibition at 1 µM: mouse proteome, in vitro. The class given is biochemical. The method in brief: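 Competitive ABPP: inhibitor exposure (30 min, 37° C) of mouse brain membrane or lysate proteome at 1.0 mg/mL, then labelling with FP-Rh for another 30 min. Activity quantified by in-gel fluorescence of FAAH bands after SDS-PAGE.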

Assay [2] addresses T1, FAAH. Description: Mouse brain proteomes from inhibitor treated mice, FAAH. The class given is in vivo. The note with it: 5 mg/kg oral gavage, C57Bl/6J mice, brain proteome 4 h after administration. Here is the method:
Preparation of Mouse Brain Proteomes from Inhibitor Treated Mice.
Inhibitors were administered to wild-type C57Bl/6J by oral gavage in a vehicle of polyethylene glycol. Each animal was sacrificed 4 h following administration and brain proteomes were prepared and analyzed according to previously established methods (See Niphakis, M. J., et al. (2011) ACS Chem. Neurosci. and Long, J. Z., et al. Nat. Chem. Biol. 5:37-44)

The next assay has as its target T2, MAGL (Mus musculus, UniProt O35678).
T2 construct: Proteomes (mouse brain membrane fraction or cell lysates); from tissue; host or cells: mouse brain membrane fraction (or unspecified cell lysates)
T2 sequence (O35678 1-303): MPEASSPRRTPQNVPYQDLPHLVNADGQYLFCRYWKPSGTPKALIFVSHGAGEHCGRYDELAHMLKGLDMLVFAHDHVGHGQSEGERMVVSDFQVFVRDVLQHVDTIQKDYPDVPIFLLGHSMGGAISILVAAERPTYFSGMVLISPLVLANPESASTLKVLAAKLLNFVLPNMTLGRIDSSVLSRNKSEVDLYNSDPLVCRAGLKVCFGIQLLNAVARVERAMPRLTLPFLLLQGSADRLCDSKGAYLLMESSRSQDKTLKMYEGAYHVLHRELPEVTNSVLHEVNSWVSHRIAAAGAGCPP
The experiment in a line: In vitro competitive activity-based protein profiling (mouse), MAGL. The assay is classed as biochemical. The settings on record: for inhibition at 1 µM: mouse proteome, in vitro, read-out: % Inhibition at 1 μM MAGL; for IC50: mouse brain membrane fraction or cell lysates, 30 min preincubation at 37° C, FP-Rh probe. Here is the method: (§1) In Vitro Competitive Activity-Based Protein Profiling (Mouse).
(§2) Proteomes (mouse brain membrane fraction or cell lysates) (50 μL, 1.0 mg/mL total protein concentration) were preincubated with varying concentrations of inhibitors at 37° C. After 30 min, FP-Rh (1.0 μL, 50 μM in DMSO) was added and the mixture was incubated for another 30 min at 37° C. Reactions were quenched with SDS loading buffer (50 μL-4×) and run on SDS-PAGE.

The target of a further assay is T3, ABHD6 (Mus musculus, UniProt Q8R2Y0).
T3 construct: Proteomes (mouse brain membrane fraction or cell lysates); from tissue; host or cells: mouse brain membrane fraction (or unspecified cell lysates)
T3 sequence (Q8R2Y0 1-336): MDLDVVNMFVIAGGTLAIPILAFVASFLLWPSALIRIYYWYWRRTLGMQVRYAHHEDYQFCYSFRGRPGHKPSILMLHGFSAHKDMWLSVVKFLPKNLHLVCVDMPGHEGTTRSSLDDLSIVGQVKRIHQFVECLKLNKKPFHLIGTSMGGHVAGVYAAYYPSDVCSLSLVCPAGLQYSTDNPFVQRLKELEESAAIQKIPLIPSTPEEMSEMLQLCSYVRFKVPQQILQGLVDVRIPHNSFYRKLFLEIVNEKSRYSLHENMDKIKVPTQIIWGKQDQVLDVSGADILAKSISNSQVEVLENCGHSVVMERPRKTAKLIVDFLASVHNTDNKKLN
Description: In vitro competitive activity-based protein profiling (mouse), ABHD6. The assay is classed as biochemical. The note with it: for inhibition at 1 µM: mouse proteome, in vitro, read-out: % Inhibition at 1 μM ABHD6; for IC50: mouse brain membrane fraction or cell lysates, 30 min preincubation at 37° C, FP-Rh probe. The protocol: as §1, §2

On FAAH [1], `O=C(OC(C(F)(F)F)C(F)(F)F)N1CCN(Cc2ccc(Cl)cc2N2CC3CCC(C2)O3)CC1` [Example 30, 1,1,1,3,3,3-hexafluoropropan-2-yl 4-(2-(8-oxa-3-azabicyclo[3.2.1]octan-3-yl)-4-chlorobenzyl)piperazine-1-carboxylate] registered an IC50 greater than 1000 nM. For the same compound, the inhibition at 5 mg/kg on FAAH [2] was less than 25%.
On FAAH [1], `O=C(OC(C(F)(F)F)C(F)(F)F)N1CCN(Cc2ccc(C(F)(F)F)cc2N2C3CCC2COC3)CC1` [Example 58, 1,1,1,3,3,3-hexafluoropropan-2-yl 4-(2-(3-oxa-8-azabicyclo[3.2.1]octan-8-yl)-4-(trifluoromethyl)benzyl)piperazine-1-carboxylate] returned an inhibition at 1 µM of less than 25% and an IC50 greater than 1000 nM. In addition, at FAAH [2], the inhibition at 5 mg/kg was less than 25%.
In the case of `O=C(O)C1CN(c2cc(CN3CCN(C(=O)OC(C(F)(F)F)C(F)(F)F)CC3)ccc2C(F)(F)F)CCO1` (centres unmarked) [Example 83, 4-(5-((4-(((1,1,1,3,3,3-hexafluoropropan-2-yl)oxy)carbonyl)piperazin-1-yl)methyl)-2-(trifluoromethyl)phenyl)morpholine-2-carboxylic acid], the inhibition at 1 µM at FAAH [1] was less than 25%; on MAGL it was greater than 75%; on ABHD6, less than 25%. Besides, the IC50 at FAAH [1] is greater than 1000 nM; at MAGL, less than 100 nM; at ABHD6, 100 to 1000 nM.
`O=C(O)C(=O)c1cc(CN2CCN(C(=O)OC(C(F)(F)F)C(F)(F)F)CC2)ccc1C(F)(F)F` [Example 84, 2-(5-((4-(((1,1,1,3,3,3-hexafluoropropan-2-yl)oxy)carbonyl)piperazin-1-yl)methyl)-2-(trifluoromethyl)phenyl)-2-oxoacetic acid]: the figures for the inhibition at 1 µM on FAAH [1], on MAGL and on ABHD6 were less than 25%, greater than 75% and greater than 75%, respectively. In addition, the IC50 at FAAH [1] was greater than 1000 nM; at MAGL it was less than 100 nM; at ABHD6 it was less than 100 nM.
Consider `O=C(O)C1CCN(c2cc(CN3CCN(C(=O)OC(C(F)(F)F)C(F)(F)F)CC3)ccc2C(F)(F)F)CC1` [Example 85, 1-(5-((4-(((1,1,1,3,3,3-hexafluoropropan-2-yl)oxy)carbonyl)piperazin-1-yl)methyl)-2-(trifluoromethyl)phenyl)piperidine-4-carboxylic acid], for which the results for the inhibition at 1 µM at FAAH [1], on MAGL and on ABHD6 were less than 25%, 25 to 75% and greater than 75%, respectively. The results for the IC50 on FAAH [1], at MAGL and on ABHD6 were greater than 1000 nM, 100 to 1000 nM and 100 to 1000 nM, respectively.
Regarding `CCOC(=O)C1CCCN1c1cc(CN2CCN(C(=O)OC(C(F)(F)F)C(F)(F)F)CC2)cc(C(F)(F)F)c1` (centres unmarked) [Example 87, 1,1,1,3,3,3-hexafluoropropan-2-yl 4-(3-(2-(ethoxycarbonyl)pyrrolidin-1-yl)-5-(trifluoromethyl)benzyl)piperazine-1-carboxylate], the inhibition at 1 µM was less than 25% at FAAH [1], greater than 75% at MAGL and greater than 75% on ABHD6. Further, the values for the IC50 at FAAH [1], on MAGL and at ABHD6 were greater than 1000 nM, less than 100 nM and 100 to 1000 nM, respectively.
Consider `O=C(OC(C(F)(F)F)C(F)(F)F)N1CCN(Cc2cc(N3CCCC3CO)cc(C(F)(F)F)c2)CC1` (centres unmarked) [Example 88, 1,1,1,3,3,3-hexafluoropropan-2-yl 4-(3-(2-(hydroxymethyl)pyrrolidin-1-yl)-5-(trifluoromethyl)benzyl)piperazine-1-carboxylate], for which the inhibition at 1 µM on FAAH [1] was less than 25%; at MAGL, greater than 75%; at ABHD6 it was 25 to 75%. Besides, the figures for the IC50 on FAAH [1], on MAGL and on ABHD6 were greater than 1000 nM, 100 to 1000 nM and 100 to 1000 nM, respectively.
`O=C(O)C1CCN(c2cc(CN3CCN(C(=O)OC(C(F)(F)F)C(F)(F)F)CC3)cc(C(F)(F)F)c2)C1` (centres unmarked) [Example 89, 1-(3-((4-(((1,1,1,3,3,3-hexafluoropropan-2-yl)oxy)carbonyl)piperazin-1-yl)methyl)-5-(trifluoromethyl)phenyl)pyrrolidine-3-carboxylic acid]: the inhibition at 1 µM on FAAH [1] is less than 25%; on MAGL, greater than 75%; at ABHD6 it was greater than 75%. In addition, the results for the IC50 at FAAH [1], at MAGL and at ABHD6 were greater than 1000 nM, 100 to 1000 nM and less than 100 nM, respectively.
`O=C(OC(C(F)(F)F)C(F)(F)F)N1CCN(Cc2cc(N3CCC(CO)C3)cc(C(F)(F)F)c2)CC1` (centres unmarked) [Example 90, 1,1,1,3,3,3-hexafluoropropan-2-yl 4-(3-(3-(hydroxymethyl)pyrrolidin-1-yl)-5-(trifluoromethyl)benzyl)piperazine-1-carboxylate]: the inhibition at 1 µM at FAAH [1] was less than 25%; at MAGL, greater than 75%; at ABHD6, greater than 75%. In addition, the IC50 on FAAH [1] is greater than 1000 nM; on MAGL it was less than 100 nM; at ABHD6, 100 to 1000 nM.
With `O=C(OC(C(F)(F)F)C(F)(F)F)N1CCN(Cc2cc(N3CCC(CO)CC3)cc(C(F)(F)F)c2)CC1` [Example 91, 1,1,1,3,3,3-hexafluoropropan-2-yl 4-(3-(4-(hydroxymethyl)piperidin-1-yl)-5-(trifluoromethyl)benzyl)piperazine-1-carboxylate], the inhibition at 1 µM at FAAH [1] is less than 25%; at MAGL it was greater than 75%; on ABHD6 it was greater than 75%. Moreover, the results for the IC50 on FAAH [1], at MAGL and at ABHD6 were greater than 1000 nM, 100 to 1000 nM and 100 to 1000 nM, respectively.
On to `O=C(O)C1CN(c2cc(CN3CCN(C(=O)OC(C(F)(F)F)C(F)(F)F)CC3)cc(C(F)(F)F)c2)CCO1` (centres unmarked) [Example 92, 4-(3-((4-(((1,1,1,3,3,3-hexafluoropropan-2-yl)oxy)carbonyl)piperazin-1-yl)methyl)-5-(trifluoromethyl)phenyl)morpholine-2-carboxylic acid], for which the inhibition at 1 µM at FAAH [1] was less than 25%; on MAGL, greater than 75%; at ABHD6, less than 25%. Further, the results for the IC50 at FAAH [1], on MAGL and on ABHD6 were greater than 1000 nM, less than 100 nM and greater than 1000 nM, respectively.
For `O=C(O)C(=O)c1cc(CN2CCN(C(=O)OC(C(F)(F)F)C(F)(F)F)CC2)cc(C(F)(F)F)c1` [Example 93, 2-(3-((4-(((1,1,1,3,3,3-hexafluoropropan-2-yl)oxy)carbonyl)piperazin-1-yl)methyl)-5-(trifluoromethyl)phenyl)-2-oxoacetic acid], the figures for the inhibition at 1 µM at FAAH [1], at MAGL and at ABHD6 were less than 25%, greater than 75% and greater than 75%, respectively. The values for the concentration for half-maximal inhibition (IC50) at FAAH [1], at MAGL and on ABHD6 were greater than 1000 nM, less than 100 nM and 100 to 1000 nM, respectively.
In the case of `O=C(O)C1CCN(c2cc(CN3CCN(C(=O)OC(C(F)(F)F)C(F)(F)F)CC3)cc(C(F)(F)F)c2)CC1` [Example 94, 1-(3-((4-(((1,1,1,3,3,3-hexafluoropropan-2-yl)oxy)carbonyl)piperazin-1-yl)methyl)-5-(trifluoromethyl)phenyl)piperidine-4-carboxylic acid], the inhibition at 1 µM is less than 25% at FAAH [1], 25 to 75% at MAGL and greater than 75% on ABHD6. The figures for the IC50 at FAAH [1], on MAGL and at ABHD6 were greater than 1000 nM, 100 to 1000 nM and less than 100 nM, respectively.
